In PubChem BioAssay AID1259411 (Chemical Carcinogenesis Research Information System (CCRIS), 2018):
The source made the active and inactive calls. No rule for the calls is given here.

System: rodent carcinogenicity bioassays, tumor incidence
Test: CCRIS carcinogenicity studies
Procedure, shortened: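 Archive of carcinogenicity, mutagenicity, tumor promotion and tumor inhibition results drawn from journals, NCI reports and other sources, expert-reviewed; covers 1985-2011 and is no longer updated.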

Compound: O=P(OCC(Br)CBr)(OCC(Br)CBr)OCC(Br)CBr (stereo not drawn)
- carcinogen call (Species: MOUSE, Strain/Sex: B6C3F1/FEMALE, Route: ORAL, Dose: 0, 500, 1000 PPM IN DIET, Dose: 0, 500, 1000 PPM IN DIET, Tumor Site: Type of Lesion: STOMACH: SQUAMOUS CELL PAPILLOMA OR CARCINOMA, LUNG: ALVEOLAR/BRONCHIOLAR ADENOMA OR CARCINOMA, LIVER: HEPATOCELLULAR AD, Tumor Site: Type of Lesion: STOMACH: SQUAMOUS CELL PAPILLOMA OR CARCINOMA, LUNG: ALVEOLAR/BRONCHIOLAR ADENOMA OR CARCINOMA, LIVER: HEPATOCELLULAR AD): active; positive
- carcinogen call (Species: MOUSE, Strain/Sex: B6C3F1/MALE, Route: ORAL, Dose: 0, 500, 1000 PPM IN DIET, Dose: 0, 500, 1000 PPM IN DIET, Tumor Site: Type of Lesion: STOMACH: SQUAMOUS CELL PAPILLOMA OR CARCINOMA, LUNG: ALVEOLAR/BRONCHIOLAR ADENOMA OR CARCINOMA): active; positive
- carcinogen call (Species: RAT, Strain/Sex: F344/FEMALE, Route: ORAL, Dose: 0, 50, 100 PPM IN DIET, Dose: 0, 50, 100 PPM IN DIET, Tumor Site: Type of Lesion: KIDNEY: TUBULAR CELL ADENOMA): active; positive
- carcinogen call (Species: RAT, Strain/Sex: F344/MALE, Route: ORAL, Dose: 0, 50, 100 PPM IN DIET, Dose: 0, 50, 100 PPM IN DIET, Tumor Site: Type of Lesion: KIDNEY: TUBULAR CELL ADENOMA OR ADENOCARCINOMA): active; positive

Compound: CN(C)CCN(Cc1cccs1)c1ccccn1
- carcinogen call (Species: RAT, Strain/Sex: F344/FEMALE, Route: ORAL, Dose: 0, 1 G/L IN DEIONIZED DRINKING WATER FOR 12 WK WITH NO TREATMENT DURING WK 5 AND 9 (STUDY DURATION: 121 WK)): inactive; negative
- carcinogen call (Species: RAT, Strain/Sex: F344/FEMALE, Route: ORAL, Dose: 0, 125, 250 MG/KG IN DIET (TOTAL DOSE: 0; 7; 15 MG/KG) FOR 110 WK (STUDY DURATION: 133 WK), Dose: 0, 125, 250 MG/KG IN DIET (TOTAL DOSE: 0; 7; 15 MG/KG) FOR 110 WK (STUDY DURATION: 133 WK), Tumor Site: Type of Lesion: LIVER: CARCINOMA): active; positive
- carcinogen call (Species: RAT, Strain/Sex: F344/MALE,FEMALE, Route: ORAL, Dose: 1000 PPM IN DIET FOR 64 WK (INITIAL DOSES AT 2000 PPM), Tumor Site: Type of Lesion: LIVER: HEPATOCELLULAR CARCINOMA, CHOLANGIOCARCINOMA): active; positive
- carcinogen call (Species: RAT, Strain/Sex: F344/MALE, Route: ORAL, Dose: 0, 125, 250 MG/KG IN DIET (TOTAL DOSE: 0; 7; 14 G/KG) FOR 110 WK (STUDY DURATION: 133 WK), Dose: 0, 125, 250 MG/KG IN DIET (TOTAL DOSE: 0; 7; 14 G/KG) FOR 110 WK (STUDY DURATION: 133 WK), Tumor Site: Type of Lesion: LIVER: CARCINOMA): active; positive
- carcinogen call (Species: RAT, Strain/Sex: SPRAGUE-DAWLEY/FEMALE, Route: ORAL, Dose: 0, 500, 1000 PPM IN DRINKING WATER 5D/WK FOR LIFE (STUDY DURATION: 576-709 D), Dose: 0, 500, 1000 PPM IN DRINKING WATER 5D/WK FOR LIFE (STUDY DURATION: 576-709 D), Tumor Site: Type of Lesion: LIVER: HEPATOCELLULAR CARCINOMA OR SARCOMA): active; positive
- carcinogen call (Species: RAT, Strain/Sex: SPRAGUE-DAWLEY/MALE, Route: ORAL, Dose: 0, 500, 1000 PPM IN DRINKING WATER 5D/WK FOR LIFE (STUDY DURATION: 585-760 D), Dose: 0, 500, 1000 PPM IN DRINKING WATER 5D/WK FOR LIFE (STUDY DURATION: 585-760 D), Tumor Site: Type of Lesion: LIVER: HEPATOCELLULAR CARCINOMA): active; positive

Compound: CCSC(=O)N(CC)C1CCCCC1
- carcinogen call (Species: Mouse, Strain/Sex: C57 BL/10JfCD-1/Alpk/Female (50/group), Route: Oral, Dose: 0, 300, 1,000, 3,000 ppm of 98.1% pure cycloate in feed for 18 mo, Dose: 0, 300, 1,000, 3,000 ppm of 98.1% pure cycloate in feed for 18 mo): inactive; negative
- carcinogen call (Species: Mouse, Strain/Sex: C57 BL/10JfCD-1/Alpk/Male (50/group), Route: Oral, Dose: 0, 300, 1,000, 3,000 ppm of 98.1% pure cycloate in feed for 18 mo, Dose: 0, 300, 1,000, 3,000 ppm of 98.1% pure cycloate in feed for 18 mo): inactive; negative

Compound: CC1CN(N=O)CC(C)N1 (stereo not drawn)
- carcinogen call (Species: RAT, Strain/Sex: F344/FEMALE, Route: ORAL, Dose: 0, 100 MG/L IN DRINKING WATER 5 D/WK FOR 29 WK, STUDY DURATION: 40-50 WK, Dose: 0, 100 MG/L IN DRINKING WATER 5 D/WK FOR 29 WK, STUDY DURATION: 40-50 WK, Tumor Site: Type of Lesion: THYMUS GLAND: LYMPHOMA OR LEUKEMIA, MULTIPLE SITES: LYMPHOMA OR LEUKEMIA): active; positive

Compound: CN(C#N)N=O
- carcinogen call (Species: RAT, Strain/Sex: SPRAGUE-DAWLEY/FEMALE, Route: ORAL, Dose: 0, 6.9 MG/KG IN 25 ML DRINKING WATER DAILY (STUDY DURATION: >11 MO), Tumor Site: Type of Lesion: FORESTOMACH: SQUAMOUS CELL CARCINOMA, ESOPHAGUS: SQUAMOUS CELL PAPILLOMA OR SQUAMOUS CELL CARCINOMA): active; positive

Compound: ClCCOCCCl
- carcinogen call (Species: MOUSE, Strain/Sex: B6AKF1/MALE, Route: GAVAGE/ORAL, Dose: 100 MG/KG FROM DAY 7-28 OF LIFE THEN 300 MG/KG IN DIET, Tumor Site: Type of Lesion: LIVER: HEPATOMA): active; positive
- carcinogen call (Species: MOUSE, Strain/Sex: B6C3F1/MALE,FEMALE, Route: GAVAGE/ORAL, Dose: 100 MG/KG FROM DAY 7-28 OF LIFE THEN 300 MG/KG IN DIET, Tumor Site: Type of Lesion: LIVER: HEPATOMA): active; positive
- carcinogen call (Species: RAT, Strain/Sex: SPRAGUE-DAWLEY/MALE, Route: SUBCUTANEOUS, Dose: 0, 13.1, 4.36 UMOL IN DMSO 1/WK FOR 2 YR (STUDY DURATION: 2 YR), Dose: 0, 13.1, 4.36 UMOL IN DMSO 1/WK FOR 2 YR (STUDY DURATION: 2 YR)): inactive; negative
- carcinogen call (Species: RAT, Strain/Sex: STRAIN-CD/MALE,FEMALE, Route: GAVAGE, Dose: 25, 50 MG/KG IN STEROID SUSPENDING VEHICLE 2/WK FOR 78 WK): inactive; negative

Compound: CCCCC(CC)COC(=O)CCCCC(=O)OCC(CC)CCCC (stereo not drawn)
- carcinogen call (Species: MOUSE, Strain/Sex: B6C3F1/FEMALE, Route: ORAL, Dose: 0, 12000, 25000 PPM IN DIET FOR 102-104 WK (STUDY DURATION: 102-104 WK), Dose: 0, 12000, 25000 PPM IN DIET FOR 102-104 WK (STUDY DURATION: 102-104 WK), Tumor Site: Type of Lesion: LIVER: CARCINOMA, CARCINOMA OR ADENOMA): active; positive
- carcinogen call (Species: MOUSE, Strain/Sex: B6C3F1/FEMALE, Route: ORAL, Dose: 0, 12000, 25000 PPM IN DIET FOR 103 WK (STUDY DURATION: 105-106 WK), Dose: 0, 12000, 25000 PPM IN DIET FOR 103 WK (STUDY DURATION: 105-106 WK), Tumor Site: Type of Lesion: LIVER: HEPATOCELLULAR CARCINOMA): active; positive
- carcinogen call (Species: MOUSE, Strain/Sex: B6C3F1/MALE, Route: ORAL, Dose: 0, 12000, 25000 PPM IN DIET FOR 102-104 WK (STUDY DURATION: 102-104 WK), Dose: 0, 12000, 25000 PPM IN DIET FOR 102-104 WK (STUDY DURATION: 102-104 WK), Tumor Site: Type of Lesion: LIVER: CARCINOMA OR ADENOMA): active; positive
- carcinogen call (Species: MOUSE, Strain/Sex: B6C3F1/MALE, Route: ORAL, Dose: 0, 12000, 25000 PPM IN DIET FOR 103 WK (STUDY DURATION: 104-106 WK), Dose: 0, 12000, 25000 PPM IN DIET FOR 103 WK (STUDY DURATION: 104-106 WK), Tumor Site: Type of Lesion: LIVER: HEPATOCELLULAR CARCINOMA, HEPATOCELLULAR ADENOMA OR CARCINOMA): active; positive
- carcinogen call (Species: RAT, Strain/Sex: F344/FEMALE, Route: ORAL, Dose: 0, 12000, 25000 PPM IN DIET FOR 102-104 WK (STUDY DURATION: 102-104 WK), Dose: 0, 12000, 25000 PPM IN DIET FOR 102-104 WK (STUDY DURATION: 102-104 WK)): inactive; negative
- carcinogen call (Species: RAT, Strain/Sex: F344/FEMALE, Route: ORAL, Dose: 0, 12000, 25000 PPM IN DIET FOR 103 WK (STUDY DURATION: 104-107 WK), Dose: 0, 12000, 25000 PPM IN DIET FOR 103 WK (STUDY DURATION: 104-107 WK)): inactive; negative
- carcinogen call (Species: RAT, Strain/Sex: F344/MALE, Route: ORAL, Dose: 0, 12000, 25000 PPM IN DIET FOR 102-104 WK (STUDY DURATION: 102-104 WK), Dose: 0, 12000, 25000 PPM IN DIET FOR 102-104 WK (STUDY DURATION: 102-104 WK)): inactive; negative
- carcinogen call (Species: RAT, Strain/Sex: F344/MALE, Route: ORAL, Dose: 0, 12000, 25000 PPM IN DIET FOR 103 WK (STUDY DURATION: 104-107 WK), Dose: 0, 12000, 25000 PPM IN DIET FOR 103 WK (STUDY DURATION: 104-107 WK)): inactive; negative

Compound: O=C([O-])C(=O)[O-].O=C([O-])C(=O)[O-].[K+].[K+].[O]=[Ti+2]
- carcinogen call (Species: MOUSE, Strain/Sex: SWISS/FEMALE, Route: ORAL, Dose: 0, 5 PPM IN DRINKING WATER FOR DURATION OF STUDY (STUDY DURATION: LIFE SPAN)): inactive; negative
- carcinogen call (Species: MOUSE, Strain/Sex: SWISS/MALE, Route: ORAL, Dose: 0, 5 PPM IN DRINKING WATER FOR DURATION OF STUDY (STUDY DURATION: LIFE SPAN)): inactive; negative
